According to ChEMBL document CHEMBL1201862, “PubChem BioAssay data set” (2004):
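Exposure lasted 48 hours, with cells grown in 96-well plates and compounds tested at five concentrations. At the GI50, growth is halved.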 Calls of active or inactive are those of the source. Cut-off read from the data, not from the text of the source: active = GI50 up to about 1.1 µM and inactive = higher.

Assays:
Experiment in all cases: DTP human tumour cell line panel, 48 h
786-0 = tested on: 786-0
A498 = tested on: A498
A549 = tested on: A549
ACHN = tested on: ACHN
BT-549 = tested on: BT-549
CAKI-1 = tested on: CAKI-1
CCRF-CEM = tested on: CCRF-CEM
COLO 205 = tested on: COLO 205
DU-145 = tested on: DU-145
EKVX = tested on: EKVX
HCC 2998 = tested on: HCC 2998
HCT-116 = tested on: HCT-116
HCT-15 = tested on: HCT-15
HL-60 = tested on: HL-60
HOP-62 = tested on: HOP-62
HT-29 = tested on: HT-29
Hs-578T = tested on: Hs-578T
IGROV-1 = tested on: IGROV-1
K562 = tested on: K562
KM12 = tested on: KM12
LOX IMVI = tested on: LOX IMVI
M14 = tested on: M14
MCF7 = tested on: MCF7
MDA-MB-231 = tested on: MDA-MB-231
MDA-MB-435 = tested on: MDA-MB-435
MDA-N = tested on: MDA-N
MOLT-4 = tested on: MOLT-4
Malme-3M = tested on: Malme-3M
NCI-H226 = tested on: NCI-H226
NCI-H23 = tested on: NCI-H23
NCI-H460 = tested on: NCI-H460
NCI-H522 = tested on: NCI-H522
OVCAR-3 = tested on: OVCAR-3
OVCAR-4 = tested on: OVCAR-4
OVCAR-5 = tested on: OVCAR-5
OVCAR-8 = tested on: OVCAR-8
PC-3 = tested on: PC-3
RPMI-8226 = tested on: RPMI-8226
RXF 393 = tested on: RXF 393
SF-268 = tested on: SF-268
SF-295 = tested on: SF-295
SF-539 = tested on: SF-539
SK-MEL-28 = tested on: SK-MEL-28
SK-MEL-2 = tested on: SK-MEL-2
SK-MEL-5 = tested on: SK-MEL-5
SK-OV-3 = tested on: SK-OV-3
SN12C = tested on: SN12C
SNB-19 = tested on: SNB-19
SNB-75 = tested on: SNB-75
SR = tested on: SR
SW-620 = tested on: SW-620
T47D = tested on: T47D
TK-10 = tested on: TK-10
U-251 = tested on: U-251
UACC-257 = tested on: UACC-257
UACC-62 = tested on: UACC-62
UO-31 = tested on: UO-31
HOP-92 = tested on: HOP-92
NCI/ADR-RES = tested on: NCI/ADR-RES

For CN(C)CCNC(=O)c1cc([N+](=O)[O-])cn1C, the GI50 (786-0) was > 100 µM (inactive), the GI50 (A498) was > 100 µM (inactive) and the GI50 (A549) was > 100 µM (inactive). The GI50 (ACHN) was > 100 µM (inactive), the GI50 (BT-549) was > 100 µM (inactive) and the GI50 (CAKI-1) was > 100 µM (inactive). The GI50 (CCRF-CEM) was > 100 µM (inactive), the GI50 (COLO 205) was > 100 µM (inactive) and the GI50 (DU-145) was > 100 µM (inactive). For the same compound, the GI50 (EKVX) was > 100 µM (inactive), the GI50 (HCC 2998) was > 100 µM (inactive) and the GI50 (HCT-116) was > 100 µM (inactive). For the same compound, the GI50 (HCT-15) was > 100 µM, the GI50 (HL-60) was > 100 µM (inactive) and the GI50 (HOP-62) was > 100 µM (inactive). The GI50 (HT-29) was > 100 µM (inactive), the GI50 (Hs-578T) was > 100 µM (inactive) and the GI50 (IGROV-1) was > 100 µM (inactive). For the same compound, the GI50 (K562) was > 100 µM (inactive), the GI50 (KM12) was > 100 µM (inactive) and the GI50 (LOX IMVI) was > 100 µM (inactive). The GI50 (M14) was > 100 µM (inactive), the GI50 (MCF7) was > 100 µM (inactive) and the GI50 (MDA-MB-231) was > 100 µM (inactive). The GI50 (MDA-MB-435) was > 100 µM (inactive), the GI50 (MDA-N) was > 100 µM (inactive) and the GI50 (MOLT-4) was > 100 µM (inactive). The GI50 (Malme-3M) was > 100 µM (inactive), the GI50 (NCI-H226) was > 100 µM (inactive) and the GI50 (NCI-H23) was > 100 µM (inactive). The GI50 (NCI-H460) was > 100 µM (inactive), the GI50 (NCI-H522) was > 100 µM (inactive) and the GI50 (OVCAR-3) was > 100 µM (inactive). The GI50 (OVCAR-4) was > 100 µM (inactive), the GI50 (OVCAR-5) was > 100 µM (inactive) and the GI50 (OVCAR-8) was > 100 µM (inactive). For the same compound, the GI50 (PC-3) was > 100 µM (inactive), the GI50 (RPMI-8226) was > 100 µM (inactive) and the GI50 (RXF 393) was > 100 µM (inactive). For the same compound, the GI50 (SF-268) was > 100 µM (inactive), the GI50 (SF-295) was > 100 µM (inactive) and the GI50 (SF-539) was > 100 µM (inactive). For the same compound, the GI50 (SK-MEL-28) was > 100 µM (inactive), the GI50 (SK-MEL-2) was > 100 µM (inactive) and the GI50 (SK-MEL-5) was > 100 µM (inactive). For the same compound, the GI50 (SK-OV-3) was > 100 µM (inactive), the GI50 (SN12C) was > 100 µM (inactive) and the GI50 (SNB-19) was > 100 µM (inactive). For the same compound, the GI50 (SNB-75) was > 100 µM (inactive), the GI50 (SR) was > 100 µM (inactive) and the GI50 (SW-620) was > 100 µM (inactive). For the same compound, the GI50 (T47D) was > 100 µM (inactive), the GI50 (TK-10) was > 100 µM (inactive) and the GI50 (U-251) was > 100 µM (inactive). The GI50 (UACC-257) was > 100 µM (inactive), the GI50 (UACC-62) was > 100 µM (inactive) and the GI50 (UO-31) was > 100 µM (inactive).

For CC1CC(=O)Nc2ccccc2N1C(=O)C1CC1 (stereo not given), the GI50 (786-0) was > 100 µM (inactive), the GI50 (A498) was > 100 µM (inactive) and the GI50 (A549) was > 100 µM (inactive). The GI50 (ACHN) was > 100 µM (inactive), the GI50 (BT-549) was > 100 µM (inactive) and the GI50 (CAKI-1) was > 100 µM (inactive). The GI50 (CCRF-CEM) was > 100 µM (inactive), the GI50 (COLO 205) was > 100 µM (inactive) and the GI50 (DU-145) was > 100 µM (inactive). The GI50 (EKVX) was > 100 µM (inactive), the GI50 (HCC 2998) was > 100 µM (inactive) and the GI50 (HCT-116) was > 100 µM (inactive). For the same compound, the GI50 (HCT-15) was > 100 µM, the GI50 (HL-60) was > 100 µM (inactive) and the GI50 (HOP-62) was > 100 µM (inactive). The GI50 (HOP-92) was 19.5 µM (inactive), the GI50 (HT-29) was > 100 µM (inactive) and the GI50 (Hs-578T) was > 100 µM (inactive). For the same compound, the GI50 (IGROV-1) was > 100 µM (inactive), the GI50 (K562) was > 100 µM (inactive) and the GI50 (KM12) was > 100 µM (inactive). The GI50 (LOX IMVI) was > 100 µM (inactive), the GI50 (M14) was > 100 µM (inactive) and the GI50 (MCF7) was > 100 µM (inactive). For the same compound, the GI50 (MDA-MB-231) was > 100 µM (inactive), the GI50 (MDA-MB-435) was > 100 µM (inactive) and the GI50 (MDA-N) was > 100 µM (inactive). For the same compound, the GI50 (MOLT-4) was > 100 µM (inactive), the GI50 (Malme-3M) was > 100 µM (inactive) and the GI50 (NCI-H226) was > 100 µM (inactive). For the same compound, the GI50 (NCI-H23) was > 100 µM (inactive), the GI50 (NCI-H460) was > 100 µM (inactive) and the GI50 (NCI-H522) was > 100 µM (inactive). The GI50 (OVCAR-3) was > 100 µM (inactive), the GI50 (OVCAR-4) was > 100 µM (inactive) and the GI50 (OVCAR-5) was > 100 µM (inactive). For the same compound, the GI50 (OVCAR-8) was > 100 µM (inactive), the GI50 (PC-3) was > 100 µM (inactive) and the GI50 (RPMI-8226) was > 100 µM (inactive). The GI50 (RXF 393) was > 100 µM (inactive), the GI50 (SF-268) was > 100 µM (inactive) and the GI50 (SF-295) was > 100 µM (inactive). The GI50 (SF-539) was > 100 µM (inactive), the GI50 (SK-MEL-28) was > 100 µM (inactive) and the GI50 (SK-MEL-2) was > 100 µM (inactive). The GI50 (SK-MEL-5) was > 100 µM (inactive), the GI50 (SK-OV-3) was > 100 µM (inactive) and the GI50 (SN12C) was > 100 µM (inactive). For the same compound, the GI50 (SNB-19) was > 100 µM (inactive), the GI50 (SW-620) was > 100 µM (inactive) and the GI50 (T47D) was > 100 µM (inactive). The GI50 (TK-10) was > 100 µM (inactive), the GI50 (U-251) was > 100 µM (inactive) and the GI50 (UACC-257) was > 100 µM (inactive). The GI50 (UO-31) was > 100 µM (inactive).

For CCCCSc1nsc(N(C(=O)c2ccccc2)C(=O)c2ccccc2)n1, the GI50 (786-0) was 32 µM (inactive), the GI50 (A498) was 31.5 µM (inactive) and the GI50 (A549) was 36.5 µM (inactive). The GI50 (ACHN) was 49.1 µM (inactive), the GI50 (BT-549) was 29.1 µM (inactive) and the GI50 (CAKI-1) was 36.5 µM (inactive). For the same compound, the GI50 (CCRF-CEM) was 35.8 µM (inactive), the GI50 (COLO 205) was 20.4 µM (inactive) and the GI50 (DU-145) was 33.8 µM (inactive). The GI50 (EKVX) was 27.5 µM (inactive), the GI50 (HCC 2998) was 25.5 µM (inactive) and the GI50 (HCT-116) was 28.8 µM (inactive). For the same compound, the GI50 (HCT-15) was 30.3 µM, the GI50 (HL-60) was 28.1 µM (inactive) and the GI50 (HOP-62) was 34 µM (inactive). For the same compound, the GI50 (HOP-92) was 26.2 µM (inactive), the GI50 (HT-29) was 29.8 µM (inactive) and the GI50 (Hs-578T) was 31.2 µM (inactive). For the same compound, the GI50 (IGROV-1) was 41.1 µM (inactive), the GI50 (K562) was 29.7 µM (inactive) and the GI50 (KM12) was 33.5 µM (inactive). The GI50 (LOX IMVI) was 26.9 µM (inactive), the GI50 (M14) was 29 µM (inactive) and the GI50 (MCF7) was 32.2 µM (inactive). The GI50 (MDA-MB-435) was 33.7 µM (inactive), the GI50 (MDA-N) was 30.9 µM (inactive) and the GI50 (MOLT-4) was 24.2 µM (inactive). The GI50 (Malme-3M) was 26.9 µM (inactive), the GI50 (NCI-H226) was 29.7 µM (inactive) and the GI50 (NCI-H23) was 30.1 µM (inactive). For the same compound, the GI50 (NCI-H460) was 27.5 µM (inactive), the GI50 (NCI-H522) was 25.4 µM (inactive) and the GI50 (NCI/ADR-RES) was 31.6 µM (inactive). The GI50 (OVCAR-3) was 23.7 µM (inactive), the GI50 (OVCAR-4) was 57.5 µM (inactive) and the GI50 (OVCAR-5) was 26.5 µM (inactive). For the same compound, the GI50 (OVCAR-8) was 34.8 µM (inactive), the GI50 (PC-3) was 33.5 µM (inactive) and the GI50 (RPMI-8226) was 21.6 µM (inactive). For the same compound, the GI50 (RXF 393) was 32.3 µM (inactive), the GI50 (SF-268) was 35.8 µM (inactive) and the GI50 (SF-295) was 32.7 µM (inactive). The GI50 (SF-539) was 25.1 µM (inactive), the GI50 (SK-MEL-28) was 40.2 µM (inactive) and the GI50 (SK-MEL-2) was 26.4 µM (inactive). For the same compound, the GI50 (SK-MEL-5) was 18.8 µM (inactive), the GI50 (SK-OV-3) was 31.4 µM (inactive) and the GI50 (SN12C) was 29.2 µM (inactive). For the same compound, the GI50 (SNB-19) was 45.5 µM (inactive), the GI50 (SNB-75) was 25.1 µM (inactive) and the GI50 (SR) was 21.6 µM (inactive). The GI50 (SW-620) was 41.4 µM (inactive), the GI50 (T47D) was 37.9 µM (inactive) and the GI50 (TK-10) was 36.4 µM (inactive). The GI50 (U-251) was 32.4 µM (inactive), the GI50 (UACC-257) was 27.3 µM (inactive) and the GI50 (UACC-62) was 23.4 µM (inactive). The GI50 (UO-31) was 19.5 µM (inactive).
